Results taken from patent US8846633B2, “Method for inhibiting cancer stem cell like properties and chemoradioresistant properties of cancer or tumor cells with microRNA145” (Taipei Veterans General Hospital, priority 2011, dated 2014).

How the values were obtained:
ALDH1+CD44+ HNC cells [1] = test: tumor initiation of transfected ALDH1+CD44+ HNC cells; type: in vivo; settings: ALDH1+CD44+ cells-transplanted grafts in NOD-SCID mice
ALDH1+CD44+ HNC cells [2] = test: HNC-TIC orthotopic xenograft, tumor size; type: in vivo, nude mice; settings: intra-tumoral lesion injection; five weeks after treatment; vs pLV or shLuc
Experimental: (§1) We further explored the therapeutic potential of miR145 in immunocompromised mice bearing HNC-TIC xenografted tumors. Nude mice that were orthotopically pre-injected with GFP-labeled ALDH1^+CD44^+ cells in the neck region were treated with miR145-overexpressing lentivirus (pLV-miR-145) and shSOX9+shADAM17 by intra-tumoral lesion injection. […] By monitoring the treated mice for up to 12 weeks, we observed that administration of pLV-miR145 or shSOX9+shADAM17 prolonged animal survival to a greater extent than did the LNA-miR145 treatment (FIG. 10B).

ALDH1+CD44+ HNC cells [3] = test: HNC-TIC orthotopic xenograft, survival; type: in vivo, nude mice; settings: monitored up to 12 weeks
Experimental: as §1

HNC cells [4] = test: sphere formation of HNC cells; type: cell-based, human; settings: ALDH1+CD44+ cells; data not shown
Description: (§2) To identified the miRNA(s) involved in the regulation of TIC properties in HNC-TICs, we evaluated and compared the miRNA expression profiles in 3 pairs of HNC populations (ALDH1^+ vs. ALDH1^−, CD44^+ vs. CD44^−, and sphere-forming vs. parental) derived from patient specimens. […] To further investigate whether miR145 plays a role in the identity of HNC-TICs, two patient sample-derived HNC cell lines (HNC-1 and HNC-2) and an immortalized HNC cell line (FaDu) were subjected to quantitative RT-PCR analysis to confirm that miR145 levels were low in ALDH1^+/CD44^+ and sphere-forming HNC cells but high in ALDH1^−/CD44^− and parental cells (FIG. 8A, left and middle). To evaluate the role of miR145 on cancer initiation, we knocked down miR145 in ALDH1^−CD44^− cells derived from HNC-1, HNC-2, and FaDu cells using an miRNA SPONGE strategy (FIG. 8A, right), and subjected these cells to functional and molecular analysis. As shown in FIGS. 8B-D, the sphere formation ability and the percentage of ALDH1^+ and CD44^+ cells was all elevated upon miR145 knockdown (Spg-miR145) as compared to the control (Spg-ctrl) cells. […]

HNC cells [5] = test: percentage of ALDH1+ and CD44+ HNC cells; type: cell-based, human; settings: data not shown
Description: as §2

HNC cells [6] = test: invasion of HNC cells; type: cell-based, human; settings: ALDH1+CD44+ cells; data not shown
Description: as §2

shSOX9+shADAM17: lentiviral-based shRNAs for co-knockdown of SOX9 (SEQ ID NO: 28) and ADAM17 (SEQ ID NO: 29) (chain 1 GCGGAGGAAGTCGGTGAAGAA; chain 2 CCTATGTCGATGCTGAACAAA; the letters are possibly those of the target site)
tumor-initiating property (ALDH1+CD44+ HNC cells [1]): effectively inhibited | tumor size (ALDH1+CD44+ HNC cells [2]): dramatically reduced | animal survival (ALDH1+CD44+ HNC cells [3]): prolonged | sphere-forming ability (HNC cells [4]): reduction | percentages of CD44+ and ALDH1+ cells (HNC cells [5]): reduced | invasive capacity (HNC cells [6]): reduced
